The target in the test is CD73 (Homo sapiens (Human), UniProt P21589). In words: Biochemical assay: inhibition of CD73 activity (AMP hydrolysis, Malachite Green readout). Conditions: CD73 0.3208 nM, AMP 15 μM, 25 mM Tris-HCl pH 7.4, RT, absorbance 620 nm. The method, then: Example A1: Biochemical Assay
CD73, sequence (P21589 27-574): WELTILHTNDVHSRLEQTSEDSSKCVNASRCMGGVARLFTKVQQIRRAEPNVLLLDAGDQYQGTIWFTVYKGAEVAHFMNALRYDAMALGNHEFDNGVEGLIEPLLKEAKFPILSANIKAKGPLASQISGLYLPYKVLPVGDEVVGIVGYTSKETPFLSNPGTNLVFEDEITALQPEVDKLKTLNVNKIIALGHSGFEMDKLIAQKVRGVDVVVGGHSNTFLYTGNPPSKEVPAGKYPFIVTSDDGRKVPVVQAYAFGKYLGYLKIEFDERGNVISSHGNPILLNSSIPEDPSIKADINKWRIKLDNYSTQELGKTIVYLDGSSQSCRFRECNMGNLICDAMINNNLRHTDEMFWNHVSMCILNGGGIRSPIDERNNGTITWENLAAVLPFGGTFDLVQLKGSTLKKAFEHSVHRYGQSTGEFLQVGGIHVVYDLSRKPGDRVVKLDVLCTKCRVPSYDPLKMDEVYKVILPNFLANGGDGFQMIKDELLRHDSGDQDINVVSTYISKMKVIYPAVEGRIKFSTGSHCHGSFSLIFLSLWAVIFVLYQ
Assay Reaction Conditions
• Assay Volume: 70 μl • Reaction Volume: 50 μl • CD73: 0.3208 nM • AMP: 15 μM • Assay Buffer: 25 mM Tris-HCL, pH 7.4, 0.01% Brij-35, 0.01% BSA, 5 mM MgCl2 Assay Procedure:
Made dose titration of testing compounds in assay buffer, 10 points ½ log titrations in duplicates starting at 100 μM.
Added 25 μl of CD73 to each well for a final concentration of 320 pM.
Incubated at RT for 15 min.
Added 25 μl of AMP to each well for a final concentration of 15 μM.
Incubated at RT for 10 min.
Added 10 μl of Malachite Green Reagent A, incubate at RT for 10 min.
Added 10 of Malachite Green Reagent B, incubate at RT for 45 min.
Read the Absorbance on Envision plate reader using excitation filter: Cy5 […].
The ability of the compounds disclosed herein to inhibit CD73 activity was quantified and the respective IC50 values were determined. Table 2 provides the biochemical IC50 values of compounds disclosed herein.
Consider `O=C(O)COCC(CO)(OC[C@H]1O[C@@H](n2ncc3c(NC4CCCC4)nc(Cl)nc32)[C@H](O)[C@@H]1O)P(=O)(O)O` (mixture of isomers) [Example 198, rac-2-(2-(((2R,3S,4R,5R)-5-(6-chloro-4-(cyclopentylamino)-1H-pyrazolo[3,4-d]pyrimidin-1-yl)-3,4-dihydroxytetrahydrofuran-2-yl)methoxy)-3-hydroxy-2-phosphonopropoxy)acetic acid], for which the IC50 – broadly, the concentration needed to halve the response being measured – was at most 100 nM. As to `C[C@](CO)(OC[C@H]1O[C@@H](n2ncc3c(NC4CCCC4)nc(C#CCO)nc32)[C@H](O)[C@@H]1O)P(=O)(O)O` (racemic) [Example 199, rac-((R)-2-(((2S,3R,4S,5S)-5-(4-(cyclopentylamino)-6-(3-hydroxyprop-1-yn-1 yl)-1H-pyrazolo[3,4-d]pyrimidin-1-yl)-3,4-dihydroxytetrahydrofuran-2-yl)methoxy)-1-hydroxypropan-2-yl)phosphonic acid], the half-maximal inhibitory concentration (IC50) is at most 100 nM. The value for `O=P(O)(O)C(CO)(CO)OC[C@H]1O[C@@H](n2ncc3c(NC4CCCC4)cc(Cl)nc32)[C@H](O)[C@@H]1O` (racemic) [Example 200, rac-(2-(((2R,3S,4R,5R)-5-(6-chloro-4-(cyclopentylamino)-1H-pyrazolo[3,4-b]pyridin-1-yl)-3,4-dihydroxytetrahydrofuran-2-yl)methoxy)-1,3-dihydroxypropan-2-yl)phosphonic acid] was at most 100 nM. With `O=P(O)(O)C(CO)(CO)OC[C@H]1O[C@@H](n2ncc3c(NCc4ccc(Cl)cc4)nc(Cl)nc32)[C@H](O)[C@@H]1O` (racemic) [Example 201, rac-(2-(((2R,3S,4R,5R)-5-(6-chloro-4-((4-chlorobenzyl)amino)-1H-pyrazolo[3,4-d]pyrimidin-1-yl)-3,4-dihydroxytetrahydrofuran-2-yl)methoxy)-1,3-dihydroxypropan-2-yl)phosphonic acid] the figure was at most 100 nM; with `O=P(O)(O)C(CO)(CO)OC[C@H]1O[C@@H](n2ncc3c(NCC4CC4)nc(CO)nc32)[C@H](O)[C@@H]1O` (racemic) [Example 202, rac-(2-(((2R,3S,4R,5R)-5-(4-((cyclopropylmethyl)amino)-6-(hydroxymethyl)-1H-pyrazolo[3,4-d]pyrimidin-1-yl)-3,4-dihydroxytetrahydrofuran-2-yl)methoxy)-1,3-dihydroxypropan-2-yl)phosphonic acid], at most 100 nM. Compound `O=P(O)(O)C(CO)(CO)OC[C@H]1O[C@H](n2ncc3c(NCc4ccc(Cl)cc4)nc(Cl)nc32)[C@H](O)[C@@H]1O` (racemic) [Example 203, rac-(2-(((2R,3S,4R,5S)-5-(6-chloro-4-((4-chlorobenzyl)amino)-1H-pyrazolo[3,4-d]pyrimidin-1-yl)-3,4-dihydroxytetrahydrofuran-2-yl)methoxy)-1,3-dihydroxypropan-2-yl)phosphonic acid] registered an IC50 of at most 100 nM. The value for `O=P(O)(O)C(CO)(CO)OC[C@H]1O[C@@H](n2ncc3c(NC4CCC45CCC5)nc(Cl)nc32)[C@H](O)[C@@H]1O` (mixture of isomers) [Example 204, rac-(2-(((2R,3S,4R,5R)-5-(6-chloro-4-(spiro[3.3]heptan-1-ylamino)-1H-pyrazolo[3,4-d]pyrimidin-1-yl)-3,4-dihydroxytetrahydrofuran-2-yl)methoxy)-1,3-dihydroxypropoan-2-yl)phosphonic acid] was at most 100 nM. `C[C@@](CO)(OC[C@H]1O[C@@H](n2ncc3c(NC4CCCC4)nc(C#CCO)nc32)[C@H](O)[C@@H]1O)P(=O)(O)O` (racemic) [Example 205, rac-((R)-2-(((2R,3S,4R,5R)-5-(4-(cyclopentylamino)-6-(3-hydroxyprop-1-yn-1-yl)-1H-pyrazolo[3,4-d]pyrimidin-1-yl)-3,4-dihydroxytetrahydrofuran-2-yl)methoxy)-1-hydroxypropan-2-yl)phosphonic acid] yielded an IC50 of at most 100 nM.

`O=c1[nH]c(CC(CO)(OC[C@H]2O[C@@H](n3ncc4c(NC5CCCC5)nc(Cl)nc43)[C@H](O)[C@@H]2O)P(=O)(O)O)no1` (mixture of isomers) [Example 206, rac-(2-(((2R,3S,4R,5R)-5-(6-chloro-4-(cyclopentylamino)-1H-pyrazolo[3,4-d]pyrimidin-1-yl)-3,4-dihydroxytetrahydrofuran-2-yl)methoxy)-1-hydroxy-3-(5-oxo-4,5-dihydro-1,2,4-oxadiazol-3-yl)propan-2-yl)phosphonic acid]: the half-maximal inhibitory concentration (IC50) is at most 100 nM. With `O=P(O)(O)C(CO)(COCC(F)(F)F)OC[C@H]1O[C@@H](n2ncc3c(NC4CCCC4)nc(Cl)nc32)[C@H](O)[C@@H]1O` (mixture of isomers) [Example 207, rac-(2-(((2R,3S,4R,5R)-5-(6-chloro-4-(cyclopentylamino)-1H-pyrazolo[3,4-d]pyrimidin-1-yl)-3,4-dihydroxytetrahydrofuran-2-yl)methoxy)-1-hydroxy-3-(2,2,2-trifluoroethoxy)propan-2-yl)phosphonic acid] the figure was at most 100 nM; with `O=P(O)(O)C(CO)(COCC(F)(F)F)OC[C@H]1O[C@@H](n2ncc3c(NC4CCCC4)nc(Cl)nc32)[C@H](O)[C@@H]1O` (mixture of isomers) [Example 208, rac-(2-(((2R,3S,4R,5R)-5-(6-chloro-4-(cyclopentylamino)-1H-pyrazolo[3,4-d]pyrimidin-1-yl)-3,4-dihydroxytetrahydrofuran-2-yl)methoxy)-1-hydroxy-3-(2,2,2-trifluoroethoxy)propan-2-yl)phosphonic acid], at most 100 nM.

`COCC(CC(=O)O)(OC[C@H]1O[C@@H](n2ncc3c(NC4CCCC4)nc(Cl)nc32)[C@H](O)[C@@H]1O)P(=O)(O)O` (mixture of isomers) [Example 210, rac-3-(((2R,3S,4R,5R)-5-(6-chloro-4-(cyclopentyalmino)-1H-pyrazolo[3,4-d]pyrimidin-1-yl)-3,4-dihydroxytetrahydrofuran-2-yl)methoxy)-4-methoxy-3-phosphonobutanoic acid] came in with an IC50 of at most 100 nM. Consider `CN(c1nc(Cl)nc2c1cnn2[C@@H]1O[C@H](COC(CO)(CO)P(=O)(O)O)[C@@H](O)[C@H]1O)C1CCCC1` (racemic) [Example 211, rac-(2-(((2R,3S,4R,5R)-5-(6-chloro-4-(cyclopentyl(methyl)amino)-1H-pyrazolo[3,4-d]pyrimidin-1-yl)-3,4-dihydroxytetrahydrofuran-2-yl)methoxy)-1,3-dihydroxypropan-2-yl)phosphonic acid], for which the IC50 is at most 100 nM. The compound `COC[C@@](Cc1nn[nH]n1)(OC[C@H]1O[C@@H](n2ncc3c(NC4CCCC4)nc(Cl)nc32)[C@H](O)[C@@H]1O)P(=O)(O)O` (racemic) [Example 212, rac-((R)-2-(((2S,3R,4S,5S)-5-(6-chloro-4-(cyclopentylamino)-1H-pyrazolo[3,4-d]pyrimidin-1-yl)-3,4-dihydroxytetrahydrofuran-2-yl)methoxy)-1-methoxy-3-(2H-tetrazol-5-yl)propan-2-yl)phosphonic acid] showed an IC50 of at most 100 nM. `O=P(O)(O)[C@@](CO)(Cc1nn[nH]n1)OC[C@H]1O[C@@H](n2ncc3c(NC4CCC4)nc(Cl)nc32)[C@H](O)[C@@H]1O` (racemic) [Example 213, rac-((R)-2-(((2R,3S,4R,5R)-5-(6-chloro-4-(cyclobutylamino)-1H-pyrazolo[3,4-d]pyrimidin-1-yl)-3,4-dihydroxytetrahydrofuran-2-yl)methoxy)-1-hydroxy-3-(2H-tetrazol-5-yl)propan-2-yl)phosphonic acid] showed an IC50 of at most 100 nM. With `O=P(O)(O)[C@](CO)(Cc1nn[nH]n1)OC[C@H]1O[C@@H](n2ncc3c(NC4CCC4)nc(Cl)nc32)[C@H](O)[C@@H]1O` (racemic) [Example 214, rac-((R)-2-(((2S,3R,4S,5S)-5-(6-chloro-4-(cyclobutylamino)-1H-pyrazolo[3,4-d]pyrimidin-1-yl)-3,4-dihydroxytetrahydrofuran-2-yl)methoxy)-1-hydroxy-3-(2H-tetrazol-5-yl)propan-2-yl)phosphonic acid] the figure was at most 100 nM. In turn, `NC(=O)OC[C@@](CO)(OC[C@H]1O[C@@H](n2ncc3c(NC4CCCC4)nc(Cl)nc32)[C@H](O)[C@@H]1O)P(=O)(O)O` (racemic) [Example 215, rac-((R)-1-(carbamoyloxy)-2-(((2S,3R,4S,5S)-5-(6-chloro-4-(cyclopentylamino)-1H-pyrazolo[3,4-d]pyrimidin-1-yl)-3,4-dihydroxytetrahydrofuran-2-yl)methoxy)-3-hydroxypropan-2-yl)phosphonic acid] returned an IC50 of at most 100 nM. The value for `NC(=O)OC[C@](CO)(OC[C@H]1O[C@@H](n2ncc3c(NC4CCCC4)nc(Cl)nc32)[C@H](O)[C@@H]1O)P(=O)(O)O` (racemic) [Example 216, rac-((R)-1-(carbamoyloxy)-2-(((2R,3S,4R,5R)-5-(6-chloro-4-(cyclopentylamino)-1H-pyrazolo[3,4-d]pyrimidin-1-yl)-3,4-dihydroxytetrahydrofuran-2-yl)methoxy)-3-hydroxypropan-2-yl)phosphonic acid] was at most 100 nM.

In the case of `O=P(O)(O)[C@](CO)(Cc1nn[nH]n1)OC[C@H]1O[C@@H](n2ncc3c(NC4CCCC4)nc(CO)nc32)[C@H](O)[C@@H]1O` (racemic) [Example 217, rac-((R)-2-(((2S,3R,4S,5S)-5-(4-(cyclopentylamino)-6-(hydroxymethyl)-1H-pyrazolo[3,4-d]pyrimidin-1-yl)-3,4-dihydroxytetrahydrofuran-2-yl)methoxy)-1-hydroxy-3-(2H-tetrazol-5-yl)propan-2-yl)phosphonic acid], the IC50 was at most 100 nM.

The record behind these values is US11325938B2, “CD73 inhibitors” (ORIC Pharmaceuticals, Inc., priority 2018, dated 2022).
